Entries after “also recorded” stand apart in the source; their conditions may differ. Peptide text beside a SMILES is read from it. * marks the point of attachment. Cbz = O=C(OCc1ccccc1)*
Experiments:
[1] = tested on: collagens Iα1, Iα2 and IIIα1; assay: Real-time PCR of collagen expression (stated jointly) in cardiac fibroblasts; assay type: cell-based, rat; conditions: primary cardiac fibroblasts, FIG. 2B
Method: (§1) Cardiac fibroblasts were prepared from neonatal Wistar rats by plating the non-myocyte fraction of neonatal hearts. The hearts were removed from neonatal rats being 2-3 days old. Ventricular tissue was treated over night at 4° C. with […] trypsin in Hanks-Balanced Salt Saline (HBSS) (Ca^2+- and Mg^2+-free, Invitrogen™, Karlsruhe, Germany) and with collagenase (0,5 mg per ml) in Leibowitz medium (L-15, Invitrogen™, Karlsruhe, Germany) for 45 minutes at 37° C. After washing, the cells were pre-plated at 37° C. for one hour. The adherent cells predominantly were cardiac fibroblasts, which were then further cultivated under standard conditions in standard M199-medium with 10% new-born calf serum, L-glutamine and penicillin-streptomycin (Invitrogen™, Karlsruhe, Germany). In the experiments, we used sub-cultivated fibroblasts of the passages 3-7.
(§2) Total RNA was extracted by means of Trizol reagent (Invitrogen™, Karlsruhe, Germany). In the following, the RNA was subjected to reverse transcription (AMF Reverse Transkriptase, Roche Biochemicals, Mannheim, Germany) and treated with DNase (Ambion, Huntington, UK). […] The relative quantification was performed by means to the comparative CT-method as being described by the manufacturer. […]

[2] = tested on: MMP2 and MMP9; assay: Real-time PCR of MMP expression in cardiac fibroblasts; assay type: cell-based, rat; conditions: FIG. 4A
Method: as §1, §2

[3] = tested on: spontaneously hypertensive rats (SH-rats); assay: Histological determination of cardiac fibrosis (quantitative morphometry of siriusred-stained left-ventricular sections) in SH-rats; assay type: in vivo, rat; conditions: MG132-treated, FIG. 1B
Method: For the pathohistological evaluation, the rat hearts were embedded into paraffin, cut into sections having a thickness of 3 μm, subjected to a haematoxylin-eosin and siriusred staining and analysed as being described in Hocher, B. et al., (1999), Hypertension, 3, 816-822. The degree of heart fibrosis was evaluated by means of quantitative morphometry of the siriusred-stained sections with an image analysis system (Quantimed 500, Image 1.61 program). In this analysis, the ratio of the red-stained tissue (connective tissue) and the total tissue of the section was determined.
Male SH-rats of the same age were obtained from the Jackson Laboratory, Maine, USA. […] The blood pressure was measured weekly by means of the standard tail-cuff method. The blood values and the standard laboratory markers of the renal and hepatic functions were determined 6 weeks after the treatment and at the end of the study by means of standard methods. At the end of the study, the animals were anaesthetised by means of an intraperitoneal injection of a 20% urethane solution (0,9 g per kg body weight) and the left-ventricular pressure parameters were determined as being described by Saragoca, M. et al. (1981) Hypertension, 3, 380-385. […]
The data was determined in the form of mean values ±S.E.M., if not otherwise indicated. […]

[4] = tested on: collagen Iα2; assay: Real-time PCR of collagen Iα2 mRNA in cardiac fibroblasts; assay type: cell-based, rat; conditions: primary cardiac fibroblasts
Method: as §1
(§3) Total RNA was extracted by means of Trizol reagent (Invitrogen™, Karlsruhe, Germany). In the following, the RNA was subjected to reverse transcription (AMF Reverse Transkriptase, Roche Biochemicals, Mannheim, Germany) and treated with DNase (Ambion, Huntington, UK). […] The relative quantification was performed by means to the comparative CT-method as being described by the manufacturer.

[5] = tested on: NFκB; assay: Band shift analysis for active NFκB in nuclear extracts of cardiac fibroblasts; assay type: cell-based, rat; conditions: 0,5 μM with IL-1β; not less than 6 hours
Method: This was additionally confirmed in band shift analyses with oligonucleotides comprising a NFκB-DNA binding site. For this test, nuclear extracts from cardiac fibroblasts were prepared, which were treated with 0,5 μM MG132 or, respectively, with DMSO (solvent control) in a time course in the presence or absence of IL-1β.

[6] = tested on: cardiac fibroblasts; assay: Proliferation test (trypanblue exclusion cell counting); assay type: cell-based, rat; conditions: 0,1 and 1 μM, 10% serum, counted daily for 7 days
Method: Cardiac fibroblasts were prepared from neonatal Wistar rats by plating the non-myocyte fraction of neonatal hearts. The hearts were removed from neonatal rats being 2-3 days old. Ventricular tissue was treated over night at 4° C. with […] trypsin in Hanks-Balanced Salt Saline (HBSS) (Ca^2+- and Mg^2+-free, Invitrogen™, Karlsruhe, Germany) and with collagenase (0,5 mg per ml) in Leibowitz medium (L-15, Invitrogen™, Karlsruhe, Germany) for 45 minutes at 37° C. After washing, the cells were pre-plated at 37° C. for one hour. […]
MG132, ALLM and MG262 were purchased at Calbiochem® (San Diego, Calif., USA) and provided as 10 mM DMSO stock solutions. […] The proliferation was determined by counting the living cells in triplicate in daily intervals by means of the trypanblue exclusion test. […]
The data was determined in the form of mean values ±S.E.M., if not otherwise indicated. The significance of the differences in the left-ventricular pressure parameters and in the quantification of the heart fibrosis was determined according to Student's T-test. For the cell proliferation test, the significance was determined by comparing the regression coefficients of MG132 in relation to the control group. […]

[7] = tested on: spontaneously hypertensive rats (SH-rats); assay: Animal study: tolerability, blood pressure, weights, blood values in SH-rats; assay type: in vivo, rat
Method: (§4) Male SH-rats of the same age were obtained from the Jackson Laboratory, Maine, USA. The animals were maintained according to the international guidelines for the keeping und use of laboratory animals. 6-week-old rats were treated for 12 weeks with MG132 (1 mg per kg body weight), 0,1% DMSO as solvent control or with physiological saline (n=10 per group, daily intraperitoneal injection). The animals were fed with a high salt diet (drinking water with 2% sodium chloride). The blood pressure was measured weekly by means of the standard tail-cuff method. The blood values and the standard laboratory markers of the renal and hepatic functions were determined 6 weeks after the treatment and at the end of the study by means of standard methods. At the end of the study, the animals were anaesthetised by means of an intraperitoneal injection of a 20% urethane solution (0,9 g per kg body weight) and the left-ventricular pressure parameters were determined as being described by Saragoca, M. et al. (1981) Hypertension, 3, 380-385. The organs were withdrawn, weighed and either shock-frozen in liquid nitrogen or embedded in paraffin for the histological analysis. Since no difference was observed between the DMSO-treated and the salt-treated SH-rats in respect to the above mentioned parameters, the DMSO-treated animals served as a control for the MG132-treatment.

[8] = tested on: collagen Iα1; assay: Real-time PCR of collagen Iα1 mRNA in cardiac fibroblasts; assay type: cell-based, rat; conditions: primary cardiac fibroblasts
Method: as §1, §3

[9] = tested on: spontaneously hypertensive rats (SH-rats); assay: Left-ventricular pressure parameters in SH-rats; assay type: in vivo, rat; conditions: 1 mg/kg daily i.p., 12 weeks
Method: as §4
The data was determined in the form of mean values ±S.E.M., if not otherwise indicated. The significance of the differences in the left-ventricular pressure parameters and in the quantification of the heart fibrosis was determined according to Student's T-test. For the cell proliferation test, the significance was determined by comparing the regression coefficients of MG132 in relation to the control group. An error probability of p<0,05 was considered as being significant. The software SPSS 9.0 was used for all statistical calculations.

[10] = tested on: collagen IIIα1; assay: Real-time PCR of collagen IIIα1 mRNA in cardiac fibroblasts; assay type: cell-based, rat; conditions: primary cardiac fibroblasts
Method: as §1, §3

For `CSCC[C@@H](C=O)NC(=O)[C@H](CC(C)C)NC(=O)[C@H](CC(C)C)NC(C)=O` [ALLM] (Ac-Leu-Leu-Met-aldehyde), which “effect on collagen expression” value [1] is on record?
The value was “no effects”.

For `CC(C)C[C@H](NC(=O)[C@H](CC(C)C)NC(=O)[C@H](CC(C)C)NC(=O)OCc1ccccc1)B(O)O` [MG262], which “effect on collagen expression” value [1] is on record?
The value was “inhibited the collagen expression in a comparably effective manner”.

Which results are given for `CC(C)C[C@@H](C=O)NC(=O)[C@H](CC(C)C)NC(=O)[C@H](CC(C)C)NC(=O)OCc1ccccc1` [MG132, Z-Leu-Leu-Leu-al] (Cbz-Leu-Leu-Leu-aldehyde)?
expression of MMP2 and MMP9 under co-stimulation with IL-1β [2]: surprisingly strong reduction; cardiac fibrosis in heart section (in words) [3]: significantly reduced cardiac fibrosis; expression of collagen Iα2 (in words) ([4]; FIG. 2B): dose-dependent and dramatic reduction; down-regulation / inhibition of collagen Iα2 RNA expression ([4]; dose-dependent): up to 73%; effect on IL-1β-induced NFκB activation (band shift) [5]: small inhibitory effect; inhibition of proliferation / growth of cardiac fibroblasts [6]: dose-dependent inhibition of proliferation; tolerability of long-term treatment ([7]; SH-rats, 1 mg per kg daily, 12 weeks): very well tolerated; also recorded: in general well tolerated; Body Weight ([7]; SH-rats, 1 mg/kg MG132): 280 ± 15.3 g; differential blood picture and laboratory markers of kidney or liver side effects ([7]; blood samples after 6 weeks and at end of study): neither changes in the differential blood picture nor a change in the laboratory markers; expression of collagen Iα1 [8]: unaffected; LVEDP compared with control (in words) ([9]; 1 mg/kg): remarkably reduced pressure level; also recorded: significantly lower; dp/dtmax compared with control (in words) ([9]; 1 mg/kg): significantly higher; also recorded: more than twice higher; left-ventricular end-diastolic (filling) pressure LVEDP ([9]; mean ± S.E.M.): 5±3 mm Hg; maximal pressure drop rate dp/dtmin ([9]; mean ± S.E.M.): −5046±726 mm Hg/s; expression of collagen IIIα1 (in words) ([10]; FIG. 2B): dose-dependent and dramatic reduction; down-regulation / inhibition of collagen IIIα1 RNA expression ([10]; dose-dependent): up to 91%

Reference: US20050222043A1, “Use of proteasome inhibitor in the treatment of fibrotic diseases” (priority 2002, published 2005)
